Laboratory results: ChEMBL document CHEMBL1641475, “Synthesis, hypolipidemic and hypoglycemic activity of some novel 2-(4-(2-substituted aminothiazole-4-yl) phenoxy)-2-methyl propanoic acid derivatives” (2011)

Experiments:
Type in all cases: functional
[1] = system: Rattus norvegicus; experiment: Antihyperlipidemic activity in high fat diet-induced hyperlipidemic Sprague-Dawley rat assessed as blood triglyceride level at 250 mg/kg, po after 7 days (reference value: 135 +/- 1.592 mg/dl)
[2] = system: Rattus norvegicus; experiment: Antihyperlipidemic activity in high fat diet-induced hyperlipidemic Sprague-Dawley rat assessed as blood cholesterol level at 250 mg/kg, po after 7 days (reference value: 121.5 +/- 1.335 mg/dl)
[3] = system: Rattus norvegicus; experiment: Antihyperlipidemic activity in high fat diet-induced hyperlipidemic Sprague-Dawley rat assessed as blood LDL level at 250 mg/kg, po after 7 days (reference value: 75.5 +/- 1.24 mg/dl)
[4] = system: Rattus norvegicus; experiment: Antihyperlipidemic activity in high fat diet-induced hyperlipidemic Sprague-Dawley rat assessed as blood HDL level at 250 mg/kg, po after 7 days (reference value: 19 +/- 0.5774 mg/dl)
[5] = system: Rattus norvegicus; experiment: Antihyperlipidemic activity in high fat diet-induced hyperlipidemic Sprague-Dawley rat assessed as blood VLDL level at 250 mg/kg, po after 7 days (reference value: 27 +/- 0.3183 mg/dl)
[6] = system: Rattus norvegicus; experiment: Antihyperglycemic activity in high fat diet-induced hyperglycemic Sprague-Dawley rat assessed as blood glucose level at 250 mg/kg, po after 7 days (reference value: 106.3 +/- 0.6666 mg/dl)

Compound | Activity [1] | Activity [2] | Activity [3] | Activity [4] | Activity [5] | Activity [6]
CC(=O)Nc1nc(-c2ccc(OC(C)(C)C(=O)O)cc2)cs1 | 80.5 mg/dL | 108.3 mg/dL | 60.63 mg/dL | 32.67 mg/dL | 16.1 mg/dL | 81.5 mg/dL
CC(C)(Oc1ccc(-c2csc(NC(=O)CCl)n2)cc1)C(=O)O | 85.5 mg/dL | 111.5 mg/dL | 59.53 mg/dL | 34.33 mg/dL | 17.1 mg/dL | 72.33 mg/dL
CC(C)(Oc1ccc(-c2csc(NC(=O)c3ccccc3)n2)cc1)C(=O)O | 85.5 mg/dL | 96.5 mg/dL | 43.67 mg/dL | 37 mg/dL | 15.47 mg/dL | 74.5 mg/dL
CC(C)(Oc1ccc(-c2csc(NCC(=O)c3ccc(Cl)cc3)n2)cc1)C(=O)O | 77.33 mg/dL | 108.3 mg/dL | 61.18 mg/dL | 32.5 mg/dL | 16.23 mg/dL | 74.33 mg/dL
CC(C)(Oc1ccc(-c2csc(NC(=O)CC(=O)Cl)n2)cc1)C(=O)O | 81.17 mg/dL | 116.5 mg/dL | 67.75 mg/dL | 35.83 mg/dL | 16.53 mg/dL | 66.67 mg/dL
CC(C)(Oc1ccc(-c2csc(NC(=O)C(=O)Cl)n2)cc1)C(=O)O | 82.67 mg/dL | 96.5 mg/dL | 49.35 mg/dL | 32.5 mg/dL | 15.47 mg/dL | 75.17 mg/dL
CC(C)OC(=O)C(C)(C)Oc1ccc(C(=O)c2ccc(Cl)cc2)cc1 [FENOFIBRATE] | 73.17 mg/dL | 105.2 mg/dL | 55.33 mg/dL | 33.5 mg/dL | 14.67 mg/dL | 70.5 mg/dL
